US20240058329A1, “OPHTHALMIC COMPOSITION OF RIFAMYCIN, AND USE THEREOF” (BNC KOREA CO., LTD., priority 2020, published 2024)
Where two headings read alike, the source gives them in different places. Marks after values point to notes of the source that are not given here.

How the values were obtained:
[1] = Rabbit; 0.5%, 50 μL, 250 μg; Sigurdsson et al. (2007); cited from earlier work
[2] = 3% rifampicin solution, boric acid buffer
Experimental: In the present example, the pH value was set to be pH 2 to 12, and the concentration of a nonionic surfactant was set to be 0.001% by weight to 50% by weight. As buffer solutions, a boric acid buffer solution, and a phosphoric acid buffer solution and a citric acid buffer solution were used.
A 50 mM phosphoric acid buffer solution, a 50 mM citric acid buffer solution, or a 25 mM boric acid-borax buffer solution (all of which were final concentrations) was prepared, and thereafter, about 0.9% sodium chloride, about 0.1% EDTA, 0.01% benzalkonium chloride (all of which were final concentrations), and various concentrations of nonionic surfactants (Tween 80 or Polyoxyethylene (7) alkyl (sec-C11-15) ethers) were mixed into the solution. […] In the case of using a citric acid buffer solution, the pH value of the mixed solution was adjusted using hydrochloric acid under conditions of pH 2.6 or less. In the case of using boric acid, the pH value was adjusted using hydrochloric acid under conditions of pH 5.7 or less. […] The thus prepared solutions were continuously blended for about 2 hours, and the pH value thereof was measured at 25° C.

[3] = test system: oxygen-induced retinopathy rat models; assay: Neovascularization in retina quantified by capillaries in histology sections; type: in vivo, Sprague-Dawley rat; conditions: n = 3, vehicle only control 16.3
Experimental: Oxygen-induced retinopathy rat models were produced according to the protocols of Yanni et al. (2010) and Dorfmann et al. (2008). Sprague-Dawley rat babies (and their nursing mothers) were exposed to a cycling oxygen environment (80% and 21%, about one day for each) for 15 days after starting from the day of birth (Day 0). On Day 15 (P15), the animals were moved to room air. […] An eye drop formulation shown as Example 1 A in Table 1, or a vehicle only was administered to the eyes of the baby rats every day, for 5 days between P15 and P19, in the morning, about the noon, and in the evening. […] On P20, all of the animals were euthanized, and the retina was visualized as histology sections. In those histology sections, capillaries in the retinal tissues in 3 eye balls (AMD 101 topical application, AMD 101 SC injection administration group, and non-induction of retinopathy) or 5 eye balls (control administration group of a vehicle only) were counted, so that neovascularization was quantified. These eye balls were selected from different animals in the above-described administration groups. Representative images of the histology sections are shown (see FIGS. 1A to 1H).

[4] = Retina exposure level of rifampicin after application of topical eye drops (3 or 10 drops), LC/MS; type: in vivo, Sprague-Dawley rats; conditions: for Drug amount detected in retina: Rat, 0.25%, present study; for Rifampicin extracted from retina: rat, average of n = 3
Experimental: The remaining two rats received the same application, but 10 drops of the eye drops, in each eye under isoflurane sedation. A single drop contained 5 μL of the above-described formulation, and application of each drug drop was carried out with intervals of 30 minutes. After the eye drop application, the retina was excised from each rat under a dissection microscope. In addition, “non-treated” negative controls were used, and the retina was excised from two rats without performing any treatments on the rats. The retina was placed in a 1.5-ml microcentrifuge tube (1 retina/tube), and was fully washed with DPBS. After completion of the washing procedures, the retinal tissues in the microcentrifuge tube were frozen in dry ice, and were then preserved for quantification by LC/MS analysis.

nonionic surfactant addition by which the composition is solubilized (from relational expression) ([2]; pH 3.0)	nonionic surfactant addition by which the composition is solubilized (from relational expression) ([2]; pH 4.0)	pH at which solubilization of rifampicin does not need addition of a surfactant ([…])	rifampicin concentration whose solubilization did not need addition of a surfactant (pH range of pH 2 to pH 12) [% by weight]	Rifampicin extracted from retina ([4]; 3 drops (5 μL each, 30 min intervals) of 0.25% rifampicin eye drops (Example 1A) per eye)	Rifampicin extracted from retina ([4]; 10 drops (5 μL each, 30 min intervals) of 0.25% rifampicin eye drops (Example 1A) per eye)	SMILES	Drug amount detected in retina [1]	Average numbers of capillaries in high power field per eye ([3]; 0.25% AMD101 topical eye drop (Example 1A), three times a day P15 to P19)	Average numbers of capillaries in high power field per eye ([3]; 0.5% AMD101 SC injection (Example 6A), 20 mg/Kg once a day P15 to P19)	Drug amount detected in retina ([4]; 3 drops (15 μL, 37.5 μg))	Drug amount detected in retina ([4]; 10 drops (50 μL, 125 μg))
–	–	–	–	–	–	C[C@@H]1C[C@H]2[C@@H]3CCC4=CC(=O)C=C[C@]4(C)[C@@]3(F)[C@@H](O)C[C@]2(C)[C@@]1(O)C(=O)CO [Dexamethasone]	About 33 ng/1 g of ng/1 g of retinal tissues	–	–	–	–
about 8.2%	about 10.7%	≥ 8.5	≤ 0.002	1,288* ng/1 g of tissues	2,939* ng/1 g of tissues	CO[C@H]1/C=C/O[C@@]2(C)Oc3c(C)c(O)c4c(O)c(c(/C=N/N5CCN(C)CC5)c(O)c4c3C2=O)NC(=O)/C(C)=C\C=C\[C@H](C)[C@H](O)[C@@H](C)[C@@H](O)[C@@H](C)[C@H](OC(C)=O)[C@@H]1C [rifampicin]	–	7.78	9.28	About 1,288 ng/1 g of ng/1 g of retinal tissues	About 2,939 ng/1 g of ng/1 g of retinal tissues
